Experiment [1] has as its system M. tuberculosis H37Rv. The class given is cell-based. As to conditions: Mycobacterium tuberculosis; for MIC: read-out: approximate MIC of control drug.
The subject of experiment [2] is M. tuberculosis H37Rv. Conditions: cited from earlier work.
Experiment [3] has as its system M. tuberculosis H37Rv. The experiment can be described thus: M. tuberculosis H37Rv single-dose primary screen. The class given is cell-based, Mycobacterium tuberculosis. Conditions: 10 μg/mL.

Where a name gives a salt, the structure may show the parent alone.

`NCC[C@H](O)C(=O)N[C@@H]1C[C@H](N)[C@@H](O[C@H]2O[C@H](CN)[C@@H](O)[C@H](O)[C@H]2O)[C@H](O)[C@H]1O[C@H]1O[C@H](CO)[C@@H](O)[C@H](N)[C@H]1O` [amikacin, Amikacin sulfate]: the minimal inhibitory concentration (MIC) (usually the smallest concentration in the dilution series that meets the test's criterion for growth inhibition) in the experiment with M. tuberculosis H37Rv [1] was approximately 0.13 µg/mL. Half-maximal inhibition with M. tuberculosis H37Rv [1] (run over the course of a five month period) (IC50) was put at 0.09 ± 0.02 µg/mL.

Consider `CC[C@@H](CO)NCCN[C@@H](CC)CO` [ethambutol], for which the MIC with M. tuberculosis H37Rv [1] was approximately 0.5 µg/mL.

For the compound `O=C1C(O)=C([C@H]2CC[C@H](c3ccc(Cl)cc3)CC2)C(=O)c2ccccc21` [Atovaquone], the “activity against M. tuberculosis (in words)” value in the experiment on M. tuberculosis H37Rv [2] (Prestwick Library data) is “modest activity”.

Take `Cc1cccc(Nc2nc(-c3ccccc3)cs2)n1` [deaza analog of 1a, 4-phenyl-[2-(6-methyl-2-pyridyl)amino]thiazole]: the “% Inhibition, single-dose screen” value with M. tuberculosis H37Rv [3] is recorded as 22%.

Consider `CCc1cc(C(N)=S)ccn1` [ethionamide, 2-ethylthioisonicotinamide], for which, in the experiment with M. tuberculosis H37Rv [2] (in the TAACF screens), the “TB IC90” value is more than 100 µg/mL.
